Measured values reported in patent publication US10941157B2, “Pesticidal compositions and uses thereof” (Gilead Apollo, LLC, priority 2015, dated 2021).
In brackets after ≈: the same amount, converted by molar mass. Where two headings read alike, the source gives them in different places.

How the values were obtained:
Type in all cases: cell-based
[1] = test system: Botrtyis cinerea (Bc); assay: In vitro pathogen growth inhibition assay, Bc; conditions: 48 h
In short: (§1)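 Value reported is the compound concentration reaching ≥90% growth inhibition, from OD readings at 24 and 48 h after blank subtraction, confirmed visually. Inoculum was spores diluted in 17% V8 medium, except Rs, using 1.5 mm mycelial plugs in ¼ PDB; actual compound concentration corrected via OD600.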

[2] = test system: Collectotrichum graminicola (Cg); assay: In vitro pathogen growth inhibition assay, Cg; conditions: 48 h
In short: as §1

[3] = test system: Diplodia maydis (Dm); assay: In vitro pathogen growth inhibition assay, Dm; conditions: Stenocarpella maydis, 48 h
In short: (§2)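 Spores of Dm, Fv and Pc were diluted in 17% V8 liquid medium; Rs used 1.5 mm mycelial plugs in ¼ PDB. Compounds from 2.5 mg/ml DMSO stocks were combined with inoculum, growth was read by OD600 at 24 and 48 h with blank subtraction, and the reported value is the concentration giving ≥90% inhibition.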

[4] = test system: Fusarium moniliforme (Fm); assay: In vitro pathogen growth inhibition assay, Fm; conditions: Fusarium verticillioides
In short: as §1

[5] = test system: Fusarium virguliforme (Fv); assay: In vitro pathogen growth inhibition assay, Fv
In short: as §2

[6] = test system: Phytophthora capsici (Pc); assay: In vitro pathogen growth inhibition assay, Pc; conditions: 48 h
In short: as §2

[7] = test system: Rhizoctonia solani (Rs); assay: In vitro pathogen growth inhibition assay, Rs (mycelial plugs); conditions: Rhizoctonia solani, 48 h, mycelial plugs
In short: as §2

[8] = test system: Septoria tritici (St); assay: In vitro pathogen growth inhibition assay, St; conditions: Zymoseptoria tritici, 48 h
In short: as §1

[9] = ≥90% inhibition, 48 hours vs 2% DMSO control, read-out: Compound Concentration (ppm) sufficient for ≥90% inhibition of growth, Bc
[10] = ≥90% inhibition, 48 hours vs 2% DMSO control, read-out: Compound Concentration (ppm) sufficient for ≥90% inhibition of growth, Cg
[11] = ≥90% inhibition, 48 hours vs 2% DMSO control, read-out: Compound Concentration (ppm) sufficient for ≥90% inhibition of growth, Dm
[12] = ≥90% inhibition, 48 hours vs 2% DMSO control, read-out: Compound Concentration (ppm) sufficient for ≥90% inhibition of growth, Fm
[13] = ≥90% inhibition, 48 hours vs 2% DMSO control, read-out: Compound Concentration (ppm) sufficient for ≥90% inhibition of growth, Fv
[14] = ≥90% inhibition, 48 hours vs 2% DMSO control, read-out: Compound Concentration (ppm) sufficient for ≥90% inhibition of growth, Pc
[15] = ≥90% inhibition, 48 hours vs 2% DMSO control, read-out: Compound Concentration (ppm) sufficient for ≥90% inhibition of growth, Rs
[16] = ≥90% inhibition, 48 hours vs 2% DMSO control, read-out: Compound Concentration (ppm) sufficient for ≥90% inhibition of growth, St
[17] = ≥90% growth inhibition, 48 hours, vs 2% DMSO control, read-out: Compound Concentration (ppm) sufficient for ≥90% inhibition of Bc
[18] = ≥90% growth inhibition, 48 hours, vs 2% DMSO control, read-out: Compound Concentration (ppm) sufficient for ≥90% inhibition of Cg
[19] = ≥90% growth inhibition, 48 hours, vs 2% DMSO control, read-out: Compound Concentration (ppm) sufficient for ≥90% inhibition of Dm
[20] = ≥90% growth inhibition, 48 hours, vs 2% DMSO control, read-out: Compound Concentration (ppm) sufficient for ≥90% inhibition of Fm
[21] = ≥90% growth inhibition, 48 hours, vs 2% DMSO control, read-out: Compound Concentration (ppm) sufficient for ≥90% inhibition of Fv
[22] = ≥90% growth inhibition, 48 hours, vs 2% DMSO control, read-out: Compound Concentration (ppm) sufficient for ≥90% inhibition of Pc
[23] = ≥90% growth inhibition, 48 hours, vs 2% DMSO control, read-out: Compound Concentration (ppm) sufficient for ≥90% inhibition of Rs
[24] = ≥90% growth inhibition, 48 hours, vs 2% DMSO control, read-out: Compound Concentration (ppm) sufficient for ≥90% inhibition of St

| SMILES | IC90 [1, 9] [µg/mL] | IC90 [2, 10] [µg/mL] | IC90 [3, 11] [µg/mL] | IC90 [4, 12] [µg/mL] | IC90 [5, 13] [µg/mL] | IC90 [6, 14] [µg/mL] | IC90 [7, 15] [µg/mL] | IC90 [8, 16] [µg/mL] | IC90 [1, 17] [µg/mL] | IC90 [2, 18] [µg/mL] | IC90 [3, 19] [µg/mL] | IC90 [4, 20] [µg/mL] | IC90 [5, 21] [µg/mL] | IC90 [6, 22] [µg/mL] | IC90 [7, 23] [µg/mL] | IC90 [8, 24] [µg/mL] |
| --- | --- | --- | --- | --- | --- | --- | --- | --- | --- | --- | --- | --- | --- | --- | --- | --- |
| COc1ccccc1[C@H](Cn1c(=O)n(C(C)(C)C(=O)N2CCCCC2)c(=O)c2c(C)c(-n3cccn3)sc21)OCC(C)C [Compound I-121] | 2 (≈ 3.29 µM) | 10 (≈ 16.5 µM) | ≥ 2 | 0.4 (≈ 0.658 µM) | > 50 | > 50 | 50 (≈ 82.3 µM) | > 50 | – | – | – | – | – | – | – | – |
| CCOC(=O)c1sc2c(c1C)c(=O)n([C@@H](C)C(=O)N(C)C(C)C)c(=O)n2C[C@H](OCCC#N)c1cc(F)ccc1OC [Compound I-230] | – | – | – | – | – | – | – | – | 2 (≈ 3.32 µM) | 10 (≈ 16.6 µM) | ≥ 10 | 0.4 (≈ 0.664 µM) | 0.4 (≈ 0.664 µM) | > 50 | 0.08 (≈ 0.133 µM) | ≥ 10 |
| COc1ccc(F)cc1[C@@H](O)Cn1c(=O)n([C@@H](C)C(=O)N2CCCC2)c(=O)c2c(C)c(-n3nccn3)sc21 [Compound I-218] | – | – | – | – | – | – | – | – | 10 (≈ 18.4 µM) | 10 (≈ 18.4 µM) | 50 (≈ 92.2 µM) | 2 (≈ 3.69 µM) | 2 (≈ 3.69 µM) | ≥ 50 | 2 (≈ 3.69 µM) | > 50 |
| CCNC(=O)[C@@H](C)n1c(=O)c2c(C)c(C(=O)OCC)sc2n(C[C@H](OCCC#N)c2cc(F)ccc2OC)c1=O [Compound I-297] | – | – | – | – | – | – | – | – | 10 (≈ 17.4 µM) | 10 (≈ 17.4 µM) | > 50 | 2 (≈ 3.48 µM) | > 50 | > 50 | > 50 | > 50 |
| COc1ccc(F)cc1[C@H](Cn1c(=O)n(C(C)(C)C(=O)N2CC(O)C2)c(=O)c2c(C)c(-n3nccn3)sc21)OC1CCOCC1 [Compound I-114] | 2 (≈ 3.11 µM) | 10 (≈ 15.6 µM) | 10 (≈ 15.6 µM) | 0.4 (≈ 0.622 µM) | 2 (≈ 3.11 µM) | > 50 | 10 (≈ 15.6 µM) | > 50 | – | – | – | – | – | – | – | – |
| COCCO[C@@H](Cn1c(=O)n([C@@H](C)C(=O)NC(C)C)c(=O)c2c(C)c(-n3nccn3)sc21)c1cc(F)ccc1OC [Compound I-172] | – | – | – | – | – | – | – | – | 2 (≈ 3.4 µM) | 50 (≈ 84.9 µM) | 10 (≈ 17 µM) | 2 (≈ 3.4 µM) | 50 (≈ 84.9 µM) | > 50 | 10 (≈ 17 µM) | > 50 |
| COc1ccccc1[C@H](Cn1c(=O)n(C(C)(C)C(=O)N2CC(O)C2)c(=O)c2c(C)c(-n3nccn3)sc21)OC1CCOCC1 [Compound I-156] | 10 (≈ 16 µM) | 50 (≈ 80 µM) | 50 (≈ 80 µM) | 2 (≈ 3.2 µM) | 10 (≈ 16 µM) | > 50 | 10 (≈ 16 µM) | > 50 | – | – | – | – | – | – | – | – |
| COCCCO[C@@H](Cn1c(=O)n(C(C)(C)C(=O)N2CCCC2)c(=O)c2c(C)c(-n3nccn3)sc21)c1cc(F)ccc1OC [Compound I-083] | 2 (≈ 3.18 µM) | 2 (≈ 3.18 µM) | 2 (≈ 3.18 µM) | 0.08 (≈ 0.127 µM) | 0.4 (≈ 0.636 µM) | > 50 | 0.4 (≈ 0.636 µM) | ≥ 50 | – | – | – | – | – | – | – | – |
| COc1ccc(F)cc1[C@H](Cn1c(=O)n(C(C)(C)C(=O)O)c(=O)c2c(C)c(-n3nccn3)sc21)OC1CCC(=O)CC1 [Compound I-158] | 10 (≈ 16.7 µM) | > 50 | 50 (≈ 83.4 µM) | 2 (≈ 3.34 µM) | > 50 | 50 (≈ 83.4 µM) | 10 (≈ 16.7 µM) | > 50 | – | – | – | – | – | – | – | – |
| COc1ccccc1[C@H](Cn1c(=O)n(C(C)(C)C(=O)NC(C)C)c(=O)c2c(C)c(-n3nccn3)sc21)OCCC(=O)NO [Compound I-266] | – | – | – | – | – | – | – | – | 2 (≈ 3.26 µM) | 10 (≈ 16.3 µM) | 10 (≈ 16.3 µM) | 2 (≈ 3.26 µM) | 2 (≈ 3.26 µM) | ≥ 50 | 2 (≈ 3.26 µM) | > 50 |
| COc1ccc(F)cc1[C@H](Cn1c(=O)n(C(C)(C)C(=O)NC(C)C)c(=O)c2c(C)c(-n3cccn3)sc21)OCCS(C)(=O)=O [Compound I-286] | – | – | – | – | – | – | – | – | 2 (≈ 3.08 µM) | 2 (≈ 3.08 µM) | ≥ 50 | 2 (≈ 3.08 µM) | 2 (≈ 3.08 µM) | ≥ 50 | 2 (≈ 3.08 µM) | > 50 |
